The values that follow come from patent publication US10471046B2, “Method for treating, preventing, or reducing the risk of skin infection” (Melinta Subsidiary Corp., priority 2014, dated 2019).

≈ marks a conversion by molar mass, not a printed value.

This experiment relates to S. aureus. As to the kind of experiment: Minimum inhibitory concentrations (MICs) for S. aureus of exemplary compounds (Table 2). In kind it is cell-based. The settings on record: Staphylococcus aureus, minimum inhibitory concentrations for S. aureus; read-out: MICs. In a few lines:
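Growth of S. aureus in media with or without compound, by broth microdilution in microtiter trays following NCCLS M7-A5 guidelines. Values are MICs in μg/mL.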
Take `CC(=O)NC[C@H]1CN(c2ccc(-c3ccc(CN(Cc4nnn(C)n4)C(=O)OC(C)(C)C)cc3)c(F)c2)C(=O)O1` [Compound 4281, {4′-[5-(S)-(Acetylamino-methyl)-2-oxo-oxazolidin-3-yl]-2′-fluoro-biphenyl-4-ylmethyl}-(2-methyl-2H-tetrazol-5-ylmethyl)-carbamic acid tert-butyl ester]: the MIC was 2 µg/mL (≈ 3.61 µM).

For the compound `CC(=O)NC[C@H]1CN(c2ccc(-c3ccc(CNCc4nnn[nH]4)cc3)c(F)c2)C(=O)O1` [Compound 4282, N-[3-(2-Fluoro-4′-{[(1H-tetrazol-5-ylmethyl)-amino]-methyl}-biphenyl-4-yl)-2-oxo-oxazolidin-5-(S)-ylmethyl]-acetamide], the MIC worked out at 16 µg/mL (≈ 36.4 µM).

For `CC(=O)NC[C@H]1CN(c2ccc(-c3ccc(CNCc4nnnn4C)cc3)c(F)c2)C(=O)O1` [Compound 4283, N-[3-(2-Fluoro-4′-{[(1-methyl-1H-tetrazol-5-ylmethyl)-amino]-methyl}-biphenyl-4-yl)-2-oxo-oxazolidin-5-(S)-ylmethyl]-acetamide], the MIC worked out at 0.25 µg/mL (≈ 0.551 µM).

`CC(=O)NC[C@H]1CN(c2ccc(-c3ccc(CNCc4nnn(C)n4)cc3)c(F)c2)C(=O)O1` [Compound 4284, N-[3-(2-Fluoro-4′-{[(2-methyl-2H-tetrazol-5-ylmethyl)-amino]-methyl}-biphenyl-4-yl)-2-oxo-oxazolidin-5-(S)-ylmethyl]-acetamide]: the MIC was 0.25 µg/mL (≈ 0.551 µM).

`CC(=O)NC[C@H]1CN(c2ccc(-c3ccc(CN/C(=N\O)c4ccncc4)cc3)c(F)c2)C(=O)O1` [Compound 4285, N-[3-(2-Fluoro-4′-{[(N-hydroxy-pyridine-4-carboximidoyl)-amino]-methyl}-biphenyl-4-yl)-2-oxo-oxazolidin-5-(S)-ylmethyl]-acetamide]: the MIC is 8 µg/mL (≈ 16.8 µM).

Take `CC(=O)NC[C@H]1CN(c2ccc(-c3ccc([C@H](O)CN(CCS(C)(=O)=O)Cc4ccccc4)cc3)c(F)c2)C(=O)O1` [Compound 4286, N-[3-(4′-{2-[Benzyl-(2-methanesulfonyl-ethyl)-amino]-1-(S)-hydroxy-ethyl}-2-fluoro-biphenyl-4-yl)-2-oxo-oxazolidin-5-(S)-ylmethyl]-acetamide]: the MIC is 2 µg/mL (≈ 3.43 µM).

In the case of `CC(=O)NC[C@H]1CN(c2ccc(-c3ccc(CNC(=O)C4CCC(=O)N4)cc3)c(F)c2)C(=O)O1` (stereo partly drawn) [Compound 4289, 5-Oxo-pyrrolidine-2-carboxylic acid {4′-[5-(S)-(acetylamino-methyl)-2-oxo-oxazolidin-3-yl]-2′-fluoro-biphenyl-4-ylmethyl}-amide], the MIC is 8 µg/mL (≈ 17.1 µM).

In the case of `CC(=O)NC[C@H]1CN(c2ccc(-c3ccc(CNC(=O)C4CN(C(=O)OC(C)(C)C)C4)cc3)c(F)c2)C(=O)O1` [Compound 4290, 3-({4′-[5-(S)-(Acetylamino-methyl)-2-oxo-oxazolidin-3-yl]-2′-fluoro-biphenyl-4-ylmethyl}-carbamoyl)-azetidine-1-carboxylic acid tert-butyl ester], the MIC is 16 µg/mL (≈ 29.6 µM).

For the compound `CC(=O)NC[C@H]1CN(c2ccc(-c3ccc(CNC(=O)C4CNC4)cc3)c(F)c2)C(=O)O1` [Compound 4291, Azetidine-3-carboxylic acid {4′-[5-(S)-(acetylamino-methyl)-2-oxo-oxazolidin-3-yl]-2′-fluoro-biphenyl-4-ylmethyl}-amide], the MIC is 8 µg/mL (≈ 18.2 µM).

As for `CC(=O)NC[C@H]1CN(c2ccc(-c3ccc(CNC(=O)[C@H](N)Cc4cnc[nH]4)cc3)c(F)c2)C(=O)O1` [Compound 4292, N-{4′-[5-(S)-(Acetylamino-methyl)-2-oxo-oxazolidin-3-yl]-2′-fluoro-biphenyl-4-ylmethyl}-2-(R)-amino-3-(3H-imidazol-4-yl)-propionamide], the MIC is 16 µg/mL (≈ 32.4 µM).

As to `CC(=O)NC[C@H]1CN(c2ccc(-c3ccc(CNC(C(N)=O)c4cccnc4)cc3)c(F)c2)C(=O)O1` (stereo partly drawn) [Compound 4293, 2-({4′-[5-(S)-(Acetylamino-methyl)-2-oxo-oxazolidin-3-yl]-2′-fluoro-biphenyl-4-ylmethyl}-amino)-2-pyridin-3-yl-acetamide], the MIC is 4 µg/mL (≈ 8.14 µM).

Regarding `CC(=O)NC[C@H]1CN(c2ccc(-c3ccc(CNC(=O)C(N)c4cccnc4)cc3)c(F)c2)C(=O)O1` (stereo partly drawn) [Compound 4294, N-{4′-[5-(S)-(Acetylamino-methyl)-2-oxo-oxazolidin-3-yl]-2′-fluoro-biphenyl-4-ylmethyl}-2-amino-2-pyridin-3-yl-acetamide], the MIC was found to be 4 µg/mL (≈ 8.14 µM).

In the case of `CC(=O)NC[C@H]1CN(c2ccc(-c3ccc(CNC(=O)C4CCN4C(=O)OC(C)(C)C)cc3)c(F)c2)C(=O)O1` (stereo partly drawn) [Compound 4295, 2-({4′-[5-(S)-(Acetylamino-methyl)-2-oxo-oxazolidin-3-yl]-2′-fluoro-biphenyl-4-ylmethyl}-carbamoyl)-azetidine-1-carboxylic acid tert-butyl ester], the MIC was found to be 8 µg/mL (≈ 14.8 µM).

Consider `CC(=O)NC[C@H]1CN(c2ccc(-c3ccc(CNC(=O)C4CCN4)cc3)c(F)c2)C(=O)O1` (stereo partly drawn) [Compound 4296, Azetidine-2-carboxylic acid {4′-[5-(S)-(acetylamino-methyl)-2-oxo-oxazolidin-3-yl]-2′-fluoro-biphenyl-4-ylmethyl}-amide], for which the MIC came out at 2 µg/mL (≈ 4.54 µM).

Regarding `CC(=O)NC[C@H]1CN(c2ccc(-c3ccc(CNC(=O)[C@H](N)c4ccc(F)cc4)cc3)c(F)c2)C(=O)O1` [Compound 4297, N-{4′-[5-(S)-(Acetylamino-methyl)-2-oxo-oxazolidin-3-yl]-2′-fluoro-biphenyl-4-ylmethyl}-2-(R)-amino-2-(4-fluoro-phenyl)-acetamide], the MIC was 2 µg/mL (≈ 3.93 µM).

In the case of `CC(=O)NC[C@H]1CN(c2ccc(-c3ccc(CNCC4CCN(C(=O)OC(C)(C)C)CC4)cc3)c(F)c2)C(=O)O1` [Compound 4298, 4-[({4′-[5-(S)-(Acetylamino-methyl)-2-oxo-oxazolidin-3-yl]-2′-fluoro-biphenyl-4-ylmethyl}-amino)-methyl]-piperidine-1-carboxylic acid tert-butylester], the MIC was 8 µg/mL (≈ 14.4 µM).

Turning to `CC(=O)NC[C@H]1CN(c2ccc(-c3ccc(CN(Cc4csnn4)C(N)=O)cc3)c(F)c2)C(=O)O1` [Compound 4299, N-{3-[2-Fluoro-4′-(1-[1,2,3]thiadiazol-4-ylmethyl-ureidomethyl)-biphenyl-4-yl]-2-oxo-oxazolidin-5-(S)-ylmethyl}-acetamide], the MIC amounted to 2 µg/mL (≈ 4.01 µM).

In the case of `CC(=O)NC[C@H]1CN(c2ccc(-c3ccc(CNCC4CC4)cc3)c(F)c2)C(=O)O1` [Compound 4300, N-(3-{4′-[(Cyclopropylmethyl-amino)-methyl]-2-fluoro-biphenyl-4-yl}-2-oxo-oxazolidin-5-(S)-ylmethyl)-acetamide], the MIC is 4 µg/mL (≈ 9.72 µM).

On to `CC(=O)NC[C@H]1CN(c2ccc(-c3ccc(CNC(=O)[C@@H]4C[C@@H](O)CN4)cc3)c(F)c2)C(=O)O1` [Compound 4301, 4-(R)-Hydroxy-pyrrolidine-2-(S)-carboxylicacid {4′-[5-(S)-(acetylamino-methyl)-2-oxo-oxazolidin-3-yl]-2′-fluoro-biphenyl-4-ylmethyl}-amide], for which the MIC came to 8 µg/mL (≈ 17 µM).

For `CC(=O)NC[C@H]1CN(c2ccc(-c3ccc(CNC(=O)[C@@H](N)Cc4ccccn4)cc3)c(F)c2)C(=O)O1` [Compound 4302, N-{4′-[5-(S)-(Acetylamino-methyl)-2-oxo-oxazolidin-3-yl]-2′-fluoro-biphenyl-4-ylmethyl}-2-(S)-amino-3-pyridin-2-yl-propionamide], the MIC is 8 µg/mL (≈ 15.8 µM).

Regarding `CC(=O)NC[C@H]1CN(c2ccc(-c3ccc(CNC(=O)[C@H](Cc4ccccn4)NC(=O)OC(C)(C)C)cc3)c(F)c2)C(=O)O1` [Compound 4303, [1-(S)-({4′-[5-(S)-(Acetylamino-methyl)-2-oxo-oxazolidin-3-yl]-2′-fluoro-biphenyl-4-ylmethyl}-carbamoyl)-2-pyridin-2-yl-ethyl]-carbamic acid tert-butyl ester], the MIC is 8 µg/mL (≈ 13.2 µM).

For the compound `CC(=O)NC[C@H]1CN(c2ccc(-c3ccc(CNC(=O)C4(NC(=O)OC(C)(C)C)CC4)cc3)c(F)c2)C(=O)O1` [Compound 4304, [1-({4′-[5-(S)-(Acetylamino-methyl)-2-oxo-oxazolidin-3-yl]-2′-fluoro-biphenyl-4-ylmethyl}-carbamoyl)-cyclopropyl]-carbamic acid tert-butyl ester], the MIC was 16 µg/mL (≈ 29.6 µM).

On to `CC(=O)NC[C@H]1CN(c2ccc(-c3ccc(CNC(=O)[C@@H]4C=CCN4C(=O)OC(C)(C)C)cc3)c(F)c2)C(=O)O1` [Compound 4305, 2-({4′-[5-(S)-(Acetylamino-methyl)-2-oxo-oxazolidin-3-yl]-2′-fluoro-biphenyl-4-ylmethyl}-carbamoyl)-2,5-dihydro-pyrrole-1-(S)-carboxylic acid tert-butylester], for which the MIC turned out to be 16 µg/mL (≈ 29 µM).

On to `CC(=O)NC[C@H]1CN(c2ccc(-c3ccc(CNC(=O)[C@@H]4C=CCN4)cc3)c(F)c2)C(=O)O1` [Compound 4306, 2,5-Dihydro-1H-pyrrole-2-(S)-carboxylic acid {4′-[5-(S)-(acetylamino-methyl)-2-oxo-oxazolidin-3-yl]-2′-fluoro-biphenyl-4-ylmethyl}-amide], for which the MIC amounted to 2 µg/mL (≈ 4.42 µM).

In the case of `CC(=O)NC[C@H]1CN(c2ccc(-c3ccc(CNC(=O)[C@H](N)Cc4c[nH]c5ccccc45)cc3)c(F)c2)C(=O)O1` [Compound 4307, N-{4′-[5-(S)-(Acetylamino-methyl)-2-oxo-oxazolidin-3-yl]-2′-fluoro-biphenyl-4-ylmethyl}-2-(R)-amino-3-(1H-indol-3-yl)-propionamide], the MIC is 2 µg/mL (≈ 3.68 µM).

For `CC(=O)NC[C@H]1CN(c2ccc(-c3ccc(CNC(=O)[C@@H](Cc4c[nH]c5ccccc45)NC(=O)OC(C)(C)C)cc3)c(F)c2)C(=O)O1` [Compound 4308, [1-(R)-({4′-[5-(S)-(Acetylamino-methyl)-2-oxo-oxazolidin-3-yl]-2′-fluoro-biphenyl-4-ylmethyl}-carbamoyl)-2-(1H-indol-3-yl)-ethyl]-carbamic acid tert-butyl ester], the MIC is 128 µg/mL (≈ 199 µM).

With `CC(=O)NC[C@H]1CN(c2ccc(-c3ccc(CNC(=O)[C@@H]4CCCN4)cc3)c(F)c2)C(=O)O1` [Compound 4309, Pyrrolidine-2-(S)-carboxylic acid {4′-[5-(S)-(acetylamino-methyl)-2-oxo-oxazolidin-3-yl]-2′-fluoro-biphenyl-4-ylmethyl}-amide], the MIC amounted to 8 µg/mL (≈ 17.6 µM).
